Measured values from the supplement of paper PMC10307832.

Key:
Assay in all cases: relative viability (nuclei count vs DMSO), 5 days (fraction); higher = more cells survive
AT9283 + Luminespib = compound: O=C(Nc1c[nH]nc1-c1nc2ccc(CN3CCOCC3)cc2[nH]1)NC1CC1 [AT9283] + CCNC(=O)c1noc(-c2cc(C(C)C)c(O)cc2O)c1-c1ccc(CN2CCOCC2)cc1 [Luminespib] (partner 0.01 µM)
Method in brief: (§1)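 Relative viability is defined as nuclei in treated wells over nuclei in vehicle wells. Duplicate plates were run and medians reported. Lung cancer cell lines in 1536-well plates were dosed by pin tool one day after seeding, with one drug or with a fixed anchor-drug dose plus five library-drug doses (not always all listed) in √10 steps, and nuclei were counted after 5 days.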

AT9283 + AZD7762 = compound: O=C(Nc1c[nH]nc1-c1nc2ccc(CN3CCOCC3)cc2[nH]1)NC1CC1 [AT9283] + NC(=O)Nc1cc(-c2cccc(F)c2)sc1C(=O)N[C@H]1CCCNC1 [AZD7762] (partner 0.2 µM)
Method in brief: as §1

AT9283 + Decitabine = compound: O=C(Nc1c[nH]nc1-c1nc2ccc(CN3CCOCC3)cc2[nH]1)NC1CC1 [AT9283] + Nc1ncn([C@H]2C[C@H](O)[C@@H](CO)O2)c(=O)n1 [Decitabine] (partner 2 µM)
Method in brief: as §1

Erlotinib + Phenformin = compound: C#Cc1cccc(Nc2ncnc3cc(OCCOC)c(OCCOC)cc23)c1 [Erlotinib] + N=C(N)NC(=N)NCCc1ccccc1 [Phenformin] (partner 250 µM)
Method in brief: as §1

Erlotinib + Linsitinib = compound: C#Cc1cccc(Nc2ncnc3cc(OCCOC)c(OCCOC)cc23)c1 [Erlotinib] + C[C@]1(O)C[C@@H](c2nc(-c3ccc4ccc(-c5ccccc5)nc4c3)c3c(N)nccn32)C1 [Linsitinib] (partner 1 µM)
Method in brief: as §1

Cell Line | relative viability (AT9283 + Luminespib; first compound 0.003 µM) | relative viability (AT9283 + Luminespib; first compound 0.03 µM) | relative viability (AT9283 + Luminespib; first compound 0.09487 µM) | relative viability (AT9283 + Luminespib; first compound 0.3 µM) | relative viability (AT9283 + AZD7762; first compound 0.003 µM) | relative viability (AT9283 + AZD7762; first compound 0.03 µM) | relative viability (AT9283 + AZD7762; first compound 0.09487 µM) | relative viability (AT9283 + AZD7762; first compound 0.3 µM) | relative viability (AT9283 + Decitabine; first compound 0.003 µM) | relative viability (AT9283 + Decitabine; first compound 0.03 µM) | relative viability (AT9283 + Decitabine; first compound 0.09487 µM) | relative viability (AT9283 + Decitabine; first compound 0.3 µM) | relative viability (Erlotinib + Phenformin; first compound 0.02 µM) | relative viability (Erlotinib + Phenformin; first compound 0.2 µM) | relative viability (Erlotinib + Phenformin; first compound 0.6325 µM) | relative viability (Erlotinib + Phenformin; first compound 2 µM) | relative viability (Erlotinib + Linsitinib; first compound 0.02 µM) | relative viability (Erlotinib + Linsitinib; first compound 0.2 µM) | relative viability (Erlotinib + Linsitinib; first compound 0.6325 µM) | relative viability (Erlotinib + Linsitinib; first compound 2 µM)
NCI-H2087 | 0.163 | 0.17 | 0.15 | 0.139 | 1.35 | 0.686 | 0.348 | 0.244 | 0.238 | 0.214 | 0.182 | 0.0988 | 0.516 | 0.483 | 0.506 | 0.304 | 1.03 | 1.14 | 1.06 | 0.828
HCC-827 | 0.608 | 0.539 | 0.328 | 0.185 | 0.234 | 0.169 | 0.145 | 0.153 | 0.235 | 0.234 | 0.258 | 0.214 | 0.232 | 0.144 | 0.139 | 0.133 | 0.281 | 0.188 | 0.173 | 0.166
A-427 | 0.822 | 0.486 | 0.319 | 0.176 | 0.675 | 0.306 | 0.227 | 0.269 | 0.6 | 0.494 | 0.239 | 0.248 | 0.282 | 0.344 | 0.423 | 0.335 | 1.15 | 1.1 | 1.12 | 1.12
NCI-H460 | 0.0366 | 0.041 | 0.0309 | 0.0299 | 0.543 | 0.687 | 0.131 | 0.11 | 0.434 | 0.466 | 0.24 | 0.078 | 0.524 | 0.512 | 0.541 | 0.466 | 0.804 | 0.647 | – | 0.712
NCI-H1734 | 0.221 | 0.145 | 0.165 | 0.18 | 0.533 | 0.274 | 0.225 | 0.245 | 0.54 | 0.324 | 0.261 | 0.254 | 0.4 | 0.378 | 0.391 | 0.359 | 0.946 | 0.849 | 0.966 | 0.776
NCI-H1993 | 0.977 | 0.521 | 0.523 | 0.45 | 0.822 | 0.745 | 0.469 | 0.326 | 0.596 | 0.453 | 0.442 | 0.456 | 0.564 | 0.59 | 0.573 | 0.549 | 0.763 | – | 0.728 | 0.85
